Source: PubChem BioAssay AID1963983 (Molecular Pharmacology Branch, DTP, NCI, 2024)

Test system: 186277-243-T-J2-PDC multi-cell spheroid viability
Assay: Anticancer human tumor 186277-243-T-J2-PDC patient-derived colon adenocarcinoma cell line growth inhibition [PI3K]
Details: for IC50: curve of first compound; for viability, T/C: stronger effect = lower value
Procedure, shortened: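 Viability of mixed-cell spheroids was determined after exposure to pairwise combinations, one partner being inavolisib, alpelisib, duvelisib or copanlisib. Highest tested concentration matched clinical Cmax where known and 10 microM where not, descending in half-log steps.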

[1] = second compound 0.0316 µM, first compound 0.0316 µM
[2] = second compound 0.0316 µM, first compound 0.1 µM
[3] = second compound 0.0316 µM, first compound 0.316 µM
[4] = second compound 0.0316 µM, first compound 1 µM
[5] = second compound 0.0316 µM, first compound 3.16 µM
[6] = second compound 0.0316 µM, first compound 10 µM
[7] = second compound 0.1 µM, first compound 0.0316 µM
[8] = second compound 0.1 µM, first compound 0.1 µM
[9] = second compound 0.1 µM, first compound 0.316 µM
[10] = second compound 0.1 µM, first compound 1 µM
[11] = second compound 0.1 µM, first compound 3.16 µM
[12] = second compound 0.1 µM, first compound 10 µM
[13] = second compound 0.316 µM, first compound 0.0316 µM
[14] = second compound 0.316 µM, first compound 0.1 µM
[15] = second compound 0.316 µM, first compound 0.316 µM
[16] = second compound 0.316 µM, first compound 1 µM
[17] = second compound 0.316 µM, first compound 3.16 µM
[18] = second compound 0.316 µM, first compound 10 µM
[19] = second compound 1 µM, first compound 0.0316 µM
[20] = second compound 1 µM, first compound 0.1 µM
[21] = second compound 1 µM, first compound 0.316 µM
[22] = second compound 1 µM, first compound 1 µM
[23] = second compound 1 µM, first compound 3.16 µM
[24] = second compound 1 µM, first compound 10 µM
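Note: spheroids exposed to compounds for seven days before viability reading.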
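Throughout, for viability, T/C: 100% = DMSO vehicle control viability.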

In the case of `CC1(C)CCC(Nc2ncc(C(F)(F)F)c(-c3c[nH]c4c(P(C)(C)=O)c(C#N)ccc34)n2)CN1` (stereo unspecified) + CC(Nc1ccc2c(c1)OCCn1cc(N3C(=O)OCC3C(F)F)nc1-2)C(N)=O, the IC50 (second compound 0.00316 µM) is reported as 3600 nM, the IC50 (second compound 0.01 µM) is reported as 3860 nM and the IC50 (second compound 0.0316 µM) is reported as 3520 nM. The IC50 (second compound 0.1 µM) was 1650 nM, the IC50 (second compound 0.316 µM) was 56.9 nM and the IC50 (second compound 1 µM) was < 31.6 nM. The viability, T/C (second compound 0.00316 µM, first compound 0.0316 µM) was 71.6%, the viability, T/C (second compound 0.00316 µM, first compound 0.1 µM) was 45.1% and the viability, T/C (second compound 0.00316 µM, first compound 0.316 µM) was 52.8%. For the same compound, the viability, T/C (second compound 0.00316 µM, first compound 1 µM) was 56.5%, the viability, T/C (second compound 0.00316 µM, first compound 3.16 µM) was 56.6% and the viability, T/C (second compound 0.00316 µM, first compound 10 µM) was 1.03%. For the same compound, the viability, T/C (second compound 0.01 µM, first compound 0.0316 µM) was 69.1%, the viability, T/C (second compound 0.01 µM, first compound 0.1 µM) was 52.9% and the viability, T/C (second compound 0.01 µM, first compound 0.316 µM) was 55%. The viability, T/C (second compound 0.01 µM, first compound 1 µM) was 58.9%, the viability, T/C (second compound 0.01 µM, first compound 3.16 µM) was 66.3% and the viability, T/C (second compound 0.01 µM, first compound 10 µM) was 0.23%. The viability, T/C [1] was 78%, the viability, T/C [2] was 54.3% and the viability, T/C [3] was 51.7%. The viability, T/C [4] was 57.8%, the viability, T/C [5] was 55.3% and the viability, T/C [6] was 0.17%. It also gave a viability, T/C [7] of 72.7%, a viability, T/C [8] of 54.3% and a viability, T/C [9] of 60.4%. It also gave a viability, T/C [10] of 55.6%, a viability, T/C [11] of 43.6% and a viability, T/C [12] of 0.46%. It also gave a viability, T/C [13] of 54.2%, a viability, T/C [14] of 49.7% and a viability, T/C [15] of 33.4%. It also gave a viability, T/C [16] of 41%, a viability, T/C [17] of 22.6% and a viability, T/C [18] of 0.44%. The viability, T/C [19] was 34.5%, the viability, T/C [20] was 29.1% and the viability, T/C [21] was 22.6%. The viability, T/C [22] was 26.4%, the viability, T/C [23] was 12.2% and the viability, T/C [24] was 1.38%.
`CNC(=O)c1ccc(N2C(=S)N(c3ccc(C#N)c(C(F)(F)F)c3)C(=O)C2(C)C)cc1F` + CC(Nc1ncnc2nc[nH]c12)c1cc2cccc(Cl)c2c(=O)n1-c1ccccc1 was tested, and the IC50 (second compound 0.0316 µM) was > 10000 nM, the IC50 (second compound 0.1 µM) was > 10000 nM and the IC50 (second compound 0.316 µM) was > 10000 nM. For the same compound, the IC50 (second compound 1 µM) was > 10000 nM, the IC50 (second compound 3.16 µM) was > 10000 nM and the IC50 (second compound 10 µM) was > 10000 nM. For the same compound, the viability, T/C [1] was 100%, the viability, T/C [2] was 117% and the viability, T/C [3] was 90.9%. The viability, T/C [4] was 90.1%, the viability, T/C [5] was 101% and the viability, T/C [6] was 92%. It also gave a viability, T/C [7] of 99.7%, a viability, T/C [8] of 107% and a viability, T/C [9] of 88.6%. It also gave a viability, T/C [10] of 115%, a viability, T/C [11] of 115% and a viability, T/C [12] of 99.8%. It also gave a viability, T/C [13] of 104%, a viability, T/C [14] of 119% and a viability, T/C [15] of 102%. The viability, T/C [16] was 104%, the viability, T/C [17] was 112% and the viability, T/C [18] was 113%. The viability, T/C [19] was 89.3%, the viability, T/C [20] was 112% and the viability, T/C [21] was 117%. It also gave a viability, T/C [22] of 116%, a viability, T/C [23] of 106% and a viability, T/C [24] of 103%. It also gave a viability, T/C (second compound 3.16 µM, first compound 0.0316 µM) of 116%, a viability, T/C (second compound 3.16 µM, first compound 0.1 µM) of 128% and a viability, T/C (second compound 3.16 µM, first compound 0.316 µM) of 103%. For the same compound, the viability, T/C (second compound 3.16 µM, first compound 1 µM) was 106%, the viability, T/C (second compound 3.16 µM, first compound 3.16 µM) was 118% and the viability, T/C (second compound 3.16 µM, first compound 10 µM) was 92.9%. For the same compound, the viability, T/C (second compound 10 µM, first compound 0.0316 µM) was 90.5%, the viability, T/C (second compound 10 µM, first compound 0.1 µM) was 102% and the viability, T/C (second compound 10 µM, first compound 0.316 µM) was 103%. It also gave a viability, T/C (second compound 10 µM, first compound 1 µM) of 96.6%, a viability, T/C (second compound 10 µM, first compound 3.16 µM) of 92.1% and a viability, T/C (second compound 10 µM, first compound 10 µM) of 89.4%.
In the case of `Cn1cnc2c(F)c(Nc3ccc(Br)cc3Cl)c(C(=O)NOCCO)cc21` + CC(Nc1ncnc2nc[nH]c12)c1cc2cccc(Cl)c2c(=O)n1-c1ccccc1, the IC50 (second compound 0.0316 µM) is reported as 175 nM, the IC50 (second compound 0.1 µM) is reported as 162 nM and the IC50 (second compound 0.316 µM) is reported as 148 nM. The IC50 (second compound 1 µM) was 114 nM, the IC50 (second compound 3.16 µM) was 62.7 nM and the IC50 (second compound 10 µM) was 23.1 nM. For the same compound, the viability, T/C (second compound 0.0316 µM, first compound 0.00949 µM) was 93%, the viability, T/C (second compound 0.0316 µM, first compound 0.03 µM) was 91.3% and the viability, T/C (second compound 0.0316 µM, first compound 0.0949 µM) was 58.8%. The viability, T/C (second compound 0.0316 µM, first compound 0.3 µM) was 38.9%, the viability, T/C (second compound 0.0316 µM, first compound 0.949 µM) was 23.3% and the viability, T/C (second compound 0.0316 µM, first compound 3 µM) was 10.3%. The viability, T/C (second compound 0.1 µM, first compound 0.00949 µM) was 115%, the viability, T/C (second compound 0.1 µM, first compound 0.03 µM) was 92.3% and the viability, T/C (second compound 0.1 µM, first compound 0.0949 µM) was 56.4%. It also gave a viability, T/C (second compound 0.1 µM, first compound 0.3 µM) of 40.1%, a viability, T/C (second compound 0.1 µM, first compound 0.949 µM) of 22.2% and a viability, T/C (second compound 0.1 µM, first compound 3 µM) of 12%. For the same compound, the viability, T/C (second compound 0.316 µM, first compound 0.00949 µM) was 91.1%, the viability, T/C (second compound 0.316 µM, first compound 0.03 µM) was 82.4% and the viability, T/C (second compound 0.316 µM, first compound 0.0949 µM) was 57.4%. The viability, T/C (second compound 0.316 µM, first compound 0.3 µM) was 37.5%, the viability, T/C (second compound 0.316 µM, first compound 0.949 µM) was 15.3% and the viability, T/C (second compound 0.316 µM, first compound 3 µM) was 12.5%. The viability, T/C (second compound 1 µM, first compound 0.00949 µM) was 112%, the viability, T/C (second compound 1 µM, first compound 0.03 µM) was 82.5% and the viability, T/C (second compound 1 µM, first compound 0.0949 µM) was 49.7%. It also gave a viability, T/C (second compound 1 µM, first compound 0.3 µM) of 35.1%, a viability, T/C (second compound 1 µM, first compound 0.949 µM) of 19.5% and a viability, T/C (second compound 1 µM, first compound 3 µM) of 9.14%. The viability, T/C (second compound 3.16 µM, first compound 0.00949 µM) was 104%, the viability, T/C (second compound 3.16 µM, first compound 0.03 µM) was 64.1% and the viability, T/C (second compound 3.16 µM, first compound 0.0949 µM) was 39.9%. The viability, T/C (second compound 3.16 µM, first compound 0.3 µM) was 28.5%, the viability, T/C (second compound 3.16 µM, first compound 0.949 µM) was 18.3% and the viability, T/C (second compound 3.16 µM, first compound 3 µM) was 7.22%. It also gave a viability, T/C (second compound 10 µM, first compound 0.00949 µM) of 75.7%, a viability, T/C (second compound 10 µM, first compound 0.03 µM) of 41.1% and a viability, T/C (second compound 10 µM, first compound 0.0949 µM) of 25.4%. For the same compound, the viability, T/C (second compound 10 µM, first compound 0.3 µM) was 14.1%, the viability, T/C (second compound 10 µM, first compound 0.949 µM) was 8.69% and the viability, T/C (second compound 10 µM, first compound 3 µM) was 5.17%.
